Assay results as given in publication PMC10108266, “Pharmacokinetic characteristics of golidocitinib, a highly selective JAK1 inhibitor, in healthy adult participants” (Frontiers in Immunology, 2023).
Where two headings read alike, the source gives them in different places.

What was measured:
[1] = JACKPOT2 food effect cohort (50 mg, fasted vs high-fat meal); format: in vivo, human; conditions: for AUC0-inf, Geometric Mean Ratio (90% CI) (Test vs Reference) / AUC0-t, Geometric Mean Ratio (90% CI) (Test vs Reference) / Cmax, Geometric Mean Ratio (90% CI) (Test vs Reference) / AUC(0-inf) / AUC(0-t) / Cmax: 50 mg; for AUC0-inf, Geometric Mean Ratio (90% CI) (Test vs Reference) / AUC0-t, Geometric Mean Ratio (90% CI) (Test vs Reference) / Cmax, Geometric Mean Ratio (90% CI) (Test vs Reference): fed versus fasted, percent ratio of geometric least square means; for AUC(0-inf): read-out: AUC0-inf, Geometric mean (%CV); for AUC(0-t): read-out: AUC0-t, Geometric mean (%CV); for Cmax: read-out: Cmax, Geometric mean (%CV)
Description: (§1) A total of 42 and 24 healthy participants were enrolled in part A and part B, respectively. In part A, a total of 30 participants were randomized into 5 SAD cohorts (n = 6 per cohort) and received a single dose of golidocitinib at different dose levels or a matching placebo in a 4:2 ratio. In the food effect cohort, a total of 12 participants were enrolled and received the study drug under fasted or fed conditions, with a sequential design. The 50 mg dose was selected based on available safety data after the completion of the SAD cohorts, and also on the outcomes from PK/PD modeling for potential efficacious dose for autoimmune disease. On Day 1, participants took a single dose of golidocitinib under fast condition. After a 14-day wash-out period, on Day 15, participants received another single dose of golidocitinib immediately after a standard high-fat meal. Food recipes and contents are consistent with that described in FDA Guidance for Food-Effect Bioavailability studies ([10]). For the fed condition, keeping fasted for at least 10 hours, participants started ingestion of high-fat meal 30 minutes prior to administration of golidocitinib. They had to finish the meal within 30 minutes or less, and no food was allowed for at least 4 hours post-dose. In part B, a total of 24 participants were randomized into 3 MAD cohorts, with 8 in each cohort (active:placebo = 6:2). In these cohorts, participants received golidocitinib at different dose levels or placebo once daily dosing for 14 days. Dose escalation was based on available PK and safety data in the previous cohorts.
For food effect assessment, log-transformed PK parameters (AUC0-t, AUC0-inf, and Cmax) of golidocitinib were analyzed using a mixed-effect model including terms for study treatment (fasted and fed) as fixed effects, and participants nested within treatment as a random effect. The CIs on the ratios of untransformed PK parameters were derived through a reverse transformation of the 90% CIs for the differences of the means in the log scale from the mixed-effect model. Least-squares geometric means, a ratio of the geometric means and 90% CIs on the ratio of fed to fasted were presented.

JAK1 = system: JAK1; design: method as in PMID 32297743; conditions: ref [9]; cited from earlier work
[2] = JACKPOT2 single-ascending-dose plasma PK, healthy participants in USA; format: in vivo, human; conditions: for Cmax / Tmax / AUC(0-inf) / Vd/F / half-life: human, plasma; for Cmax / AUC(0-inf): geometric mean (CV%)
Text: This was a Phase I, randomized, double-blinded, placebo-controlled study to assess the safety, tolerability, and PK of golidocitinib in healthy participants in the USA. This study included two parts: part A (single-ascending-dose [SAD] and food effect [FE] cohorts) and part B (multiple-ascending-dose [MAD] cohorts). Please refer to Figure 1 for the study flowchart.
as §1
(§2) In the SAD cohorts, serial blood samples were obtained on Day 1 at pre-dose, and at 0.5, 1, 1.5, 2, 3, 4, 6, 10, 14, 24 (Day 2), 48 (Day 3), 72 (Day 4), 120 (Day 6), 168 (Day 8) and 216 (Day 10) hours post-dose for plasma PK analysis. A similar sampling schedule was undertaken for the MAD cohorts on Day 1 and Day 14, with additional trough samples obtained on Days 5, Day 8, and Day 11. In the MAD cohorts, urine samples were collected on Day 14 during the collection intervals of 0-4, 4-10, and 10-24 hours following the last dose for urine PK analysis. Plasma and urine samples were analyzed by Frontage Laboratories Inc. (New Jersey, USA) using a validated LC/MS/MS bioanalytical method to determine golidocitinib concentrations. Cross validation in plasma was successful between Frontage Laboratories Inc. (New Jersey, USA) and Frontage Laboratories Inc. (Shanghai) using clinical samples and spiked quality control samples.
(§3) Non-compartmental PK analysis for golidocitinib concentrations was performed using Phoenix WinNonlin (Certara USA Inc., version 8.1).
(§4) Dose proportionality was concluded if the 90% confidence interval for the ratio of dose-normalized, geometric mean values (Rdnm) was contained completely within the range of 0.8 - 1.25 ([11], [12]).

[3] = JACKPOT2 multiple-ascending-dose plasma PK (once daily, 14 days); format: in vivo, human; conditions: for Cmax / AUC(0-t) / Tmax: human, plasma, oral; for Cmax / AUC(0-t): geometric mean (CV%); for AUC(0-t): read-out: AUC0-24h; for Tmax: median (min, max)
Description: as §1, §2, §3, §4

[4] = system: CYP3A4/5 and flavin-containing monooxygenase enzyme (FMO); experiment: Enzymatic systems implicated in metabolism; format: in vitro ADME
[5] = human, plasma, oral, 50 mg single dose, Fasted (Reference), N = 12
[6] = human, plasma, oral, 50 mg single dose, High-fat meal (Test), N = 11
[7] = 25 mg, 25 mg once daily, Day 14
[8] = 50 mg, 50 mg once daily, Day 14
[9] = 100 mg, 100 mg once daily, Day 1
[10] = 100 mg, 100 mg once daily, Day 14

COc1nn(C)cc1Nc1nccc(-c2c[nH]c3c(NC(=O)[C@@H](C)N4CCN(C)CC4)cccc23)n1 [golidocitinib, (2R)-N-[3-[2-[(3-Methoxy-1-methyl-pyrazol-4-yl)amino]pyrimidin-4-yl]-1H-indol-7-yl]-2-(4-methylpiperazin-1-yl)propenamide]
tmax, Median (range) ([1]; 50 mg single dose, High-fat meal (Test), N = 11): 6.00 (4.00, 14.0) hour
AUC0-inf, Geometric Mean Ratio (90% CI) (Test vs Reference) [1]: 116.5 (111.2, 122.0) %
AUC0-t, Geometric Mean Ratio (90% CI) (Test vs Reference) [1]: 115.0 (109.3, 121.0) %
Cmax, Geometric Mean Ratio (90% CI) (Test vs Reference) [1]: 108.9 (97.81, 121.2) %
AUC0-inf, Geometric Mean Ratio (90% CI) (Test vs Reference) ([1]; listed as Golidocitinib): 116.5 (111.2-122.0) %
AUC0-t, Geometric Mean Ratio (90% CI) (Test vs Reference) ([1]; listed as Golidocitinib): 115.0 (109.3-121.0) %
Cmax, Geometric Mean Ratio (90% CI) (Test vs Reference) ([1]; listed as Golidocitinib): 108.9 (97.81-121.2) %
AUC(0-inf) [1, 5]: 2960 ng·h/mL
AUC(0-t) [1, 5]: 2770 ng·h/mL
Cmax [1, 5]: 68.8 ng/mL
AUC(0-inf) [1, 6]: 3400 ng·h/mL
AUC(0-t) [1, 6]: 3230 ng·h/mL
Cmax [1, 6]: 73.7 ng/mL
Tmax ([1]; human, plasma, oral, 50 mg single dose, Fasted (Reference), N = 12, read-out: tmax, Median (range)): 6 h
selectivity to JAK1 over other JAK family kinases (JAK1): greater than 200 folds
Cmax ([2]; oral, single dose 5 mg): 5.14 ng/mL
Tmax ([2]; oral, single dose 5 mg, median (min, max), read-out: tmax): 8 h
AUC(0-inf) ([2]; oral, single dose 20 mg): 923 ng·h/mL
Cmax ([2]; oral, single dose 20 mg): 18.6 ng/mL
Vd/F ([2]; oral, single dose 20 mg, mean (SD), read-out: Vz/F): 1540 L
half-life ([2]; oral, single dose 20 mg, median (min, max), read-out: t1/2 (converted)): 51.3 h
Tmax ([2]; oral, single dose 20 mg, median (min, max), read-out: tmax): 8 h
AUC(0-inf) ([2]; oral, single dose 50 mg): 2340 ng·h/mL
Cmax ([2]; oral, single dose 50 mg): 48.5 ng/mL
Vd/F ([2]; oral, single dose 50 mg, mean (SD), read-out: Vz/F): 1420 L
half-life ([2]; oral, single dose 50 mg, median (min, max), read-out: t1/2 (converted)): 42.8 h
Tmax ([2]; oral, single dose 50 mg, median (min, max), read-out: tmax): 6 h
AUC(0-inf) ([2]; oral, single dose 100 mg): 5260 ng·h/mL
Cmax ([2]; oral, single dose 100 mg): 133 ng/mL
Vd/F ([2]; oral, single dose 100 mg, mean (SD), read-out: Vz/F): 1380 L
half-life ([2]; oral, single dose 100 mg, median (min, max), read-out: t1/2 (converted)): 50.4 h
Tmax ([2]; oral, single dose 100 mg, median (min, max), read-out: tmax): 2.5 h
AUC(0-inf) ([2]; oral, single dose 150 mg): 7260 ng·h/mL
Cmax ([2]; oral, single dose 150 mg): 232 ng/mL
Vd/F ([2]; oral, single dose 150 mg, mean (SD), read-out: Vz/F): 1400 L
half-life ([2]; oral, single dose 150 mg, median (min, max), read-out: t1/2 (converted)): 46.6 h
Tmax ([2]; oral, single dose 150 mg, median (min, max), read-out: tmax): 3 h
Vd/F ([2]; single oral administration, US participants, read-out: mean Vz/F): 1380 to 1540 L
half-life ([2]; single oral administration, across the dose range, US participants, read-out: median terminal half-life (t1/2)): 42.8 to 51.3 h
Tmax ([2]; single oral administration, across the dose range, US participants, read-out: median tmax): 2.5 to 8 h
CL/F ([2]; single dose 20 mg, mean (SD)): 21.7 (1.18) L/hr
CL/F ([2]; single dose 50 mg, mean (SD)): 22.1 (6.20) L/hr
CL/F ([2]; single dose 100 mg, mean (SD)): 19.2 (3.09) L/hr
CL/F ([2]; single dose 150 mg, mean (SD)): 21.9 (8.58) L/hr
Cmax ([3]; 25 mg, 25 mg once daily, Day 1): 33.8 ng/mL
AUC(0-t) ([3]; 25 mg, 25 mg once daily, Day 1): 536 ng·h/mL
Tmax ([3]; 25 mg, 25 mg once daily, Day 1): 6 h
Cmax [3, 7]: 83.9 ng/mL
AUC(0-t) [3, 7]: 1530 ng·h/mL
Tmax [3, 7]: 6 h
Cmax ([3]; 50 mg, 50 mg once daily, Day 1): 62.1 ng/mL
AUC(0-t) ([3]; 50 mg, 50 mg once daily, Day 1): 1020 ng·h/mL
Tmax ([3]; 50 mg, 50 mg once daily, Day 1): 6 h
Cmax [3, 8]: 169 ng/mL
AUC(0-t) [3, 8]: 3190 ng·h/mL
Tmax [3, 8]: 6 h
Cmax [3, 9]: 149 ng/mL
AUC(0-t) [3, 9]: 2490 ng·h/mL
Tmax [3, 9]: 4 h
Cmax [3, 10]: 375 ng/mL
AUC(0-t) [3, 10]: 7190 ng·h/mL
Tmax [3, 10]: 6 h
increase of Cmax and AUC0-24hr on day 14 compared to day 1 (accumulation) ([3]; multiple once-daily dosing): 2-3 folds
time to steady-state plasma concentrations ([3]; once-daily dosing): ≤ 14 days
enzymatic systems implicated in the metabolism [4]: CYP3A4/5 and flavin-containing monooxygenase enzyme (FMO)
